Measured values published in patent publication US20100022639A1, “Methods of Inducing Weight Loss” (The Johns Hopkins University School of Medicine Licensing …, priority 2000, published 2010).

Legend:
feeding behavior [1] = assay: ICV TOFA pretreatment and feeding inhibition by IP C-75; assay type: in vivo, BALB/c mice; conditions: 2 μg TOFA ICV, 2 hours later 15 mg/kg C-75 IP, food intake over 2 hours
Procedure: This model predicts that feeding inhibition by FAS inhibitors should be attenuated by inhibitors of ACC's. To test this, mice were pretreated with the ACC inhibitor TOFA or vehicle by ICV injection and examined the ability of C-75, administered IP, to inhibit feeding. BALB/c mice were anesthetized with metofane and injected ICV with 2 μg of TOFA or DMSO vehicle. After 2 hours recovery, mice were injected IP with 15 mg C-75/kg or RPMI vehicle and monitored for total food intake over 2 hours. […] In addition, mice were anesthetized and injected ICV with 2 μl of RPMI or C-75 at 2.5 or 5 μg/μl and food intake monitored over 2 (shaded) and 4 (solid) hours. The efficacy of centrally administered TOFA argues for a central (CNS) mechanism of action. ICV administration of C-75 inhibited feeding by 82% (FIG. 5C), supporting the central target action of C-75. FIGS. 5(B) and (C) combine results from 3 experiments with N=3 for each (9 total).

[2] = system: acetyl CoA carboxylase (ACC); conditions: previous studies; cited from earlier work
feeding behavior [3] = assay: Reversal of C-75 feeding inhibition by intracerebroventricular NPY; assay type: in vivo, mice; conditions: 500 ng NPY ICV
Procedure: To confirm this finding, the capacity of NPY to reverse C-75-induced inhibition of feeding was examined. Mice were pretreated with 30_mg/kg of C-75 by I.P. injection. After 4 hours, mice were anaesthetized by inhaled metofane and given a direct intracerebroventricular injection of 500_ng NPY (2.5 μl total volume) or artificial CSF vehicle. Mice were placed into metabolic cages and observed for feeding behavior and monitored for food intake over 18 hours.

Row | Compound | food intake in C-75-treated mice after TOFA pretreatment (feeding behavior [1]) | effect on fatty acid synthesis [2] | effect on feeding [2] | feeding behavior after ICV injection (feeding behavior [3]; mice pretreated with vehicle or C-75) | total food intake in C-75-treated mice (feeding behavior [3]; monitored over 18 hours)
1 | CCCCCCCCCCCCCCOc1ccc(C(=O)O)o1 [TOFA] | largely restored food intake | inhibition of fatty acid synthesis | did not inhibit feeding |  | 
2 | NPY: neuropeptide Y, anabolic neuropeptide produced in the hypothalamus that strongly stimulates feeding; injected ICV |  |  |  | rapidly led to voracious feeding | substantially elevate the total food intake
